Results taken from patent publication US6358885B1, “Substituted phenylheterocyclic herbicides” (Mississippi State University, priority 1992, dated 2002).

Tests used:
Experiment in all cases: Test B preemergence/postemergence greenhouse plant response rating 0 to 10
soybean = assay type: in vivo, Glycine max; conditions: for Plant response rating, Soybean: 0 to 10 scale; for Plant response rating (0 to 10 scale), Soybean: Rate 100 g/ha
Summary of the method: (§1)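 Postemergence treatment of plants two to eighteen cm tall ran alongside preemergence treatment of planted seed, each using compound in a non-phytotoxic solvent.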

cotton = assay type: in vivo, Gossypium hirsutum; conditions: for Plant response rating, Cotton: 0 to 10 scale
Summary of the method: as §1

velvetleaf = assay type: in vivo, Abutilon theophrasti; conditions: for Plant response rating, Velvetleaf: 0 to 10 scale
Summary of the method: as §1

lambsquarters = assay type: in vivo, Chenopodium album; conditions: for Plant response rating, Lambsquarter: 0 to 10 scale; for Plant response rating (0 to 10 scale), Lambsquarter: Rate 100 g/ha
Summary of the method: as §1

cheatgrass = assay type: in vivo, Bromus secalinus; conditions: for Plant response rating, Cheatgrass: 0 to 10 scale
Summary of the method: as §1

rice = assay type: in vivo, Oryza sativa; conditions: for Plant response rating, Rice: 0 to 10 scale; for Plant response rating (0 to 10 scale), Rice: Rate 100 g/ha
Summary of the method: as §1

wild buckwheat = assay type: in vivo, Polygonum convolvulus; conditions: for Plant response rating, Wild buckwheat: 0 to 10 scale; for Plant response rating (0 to 10 scale), Wild buckwheat: Rate 100 g/ha
Summary of the method: as §1

purple nutsedge = assay type: in vivo, Cyperus rotundus; conditions: for Plant response rating, Nutsedge: 0 to 10 scale; for Plant response rating (0 to 10 scale), Nutsedge: Rate 100 g/ha
Summary of the method: as §1

`Clc1ccc(-c2nc3n(c2Cl)CCC=C3)c(Cl)c1` [Compound 1] was tested, and the “Plant response rating, Soybean” value (soybean; POSTEMERGENCE, Rate 50 g/ha) was 4, the “Plant response rating, Soybean” value (soybean; POSTEMERGENCE, Rate 200 g/ha) was 4 and the “Plant response rating, Soybean” value (soybean; PREEMERGENCE, Rate 50 g/ha) was 0. For the same compound, the “Plant response rating, Soybean” value (soybean; Rate 200 g/ha, PREEMERGENCE) was 0, the “Plant response rating (0 to 10 scale), Cotton” value (cotton; POSTEMERGENCE, Rate 50 g/ha) was 7 and the “Plant response rating, Cotton” value (cotton; POSTEMERGENCE, Rate 200 g/ha) was 8. The “Plant response rating, Cotton” value (cotton; PREEMERGENCE, Rate 50 g/ha) was 0, the “Plant response rating, Cotton” value (cotton; Rate 200 g/ha, PREEMERGENCE) was 0 and the “Plant response rating, Velvetleaf” value (velvetleaf; POSTEMERGENCE, Rate 50 g/ha) was 3. The “Plant response rating, Velvetleaf” value (velvetleaf; POSTEMERGENCE, Rate 200 g/ha) was 8, the “Plant response rating, Velvetleaf” value (velvetleaf; PREEMERGENCE, Rate 50 g/ha) was 0 and the “Plant response rating, Velvetleaf” value (velvetleaf; Rate 200 g/ha, PREEMERGENCE) was 0. The “Plant response rating, Lambsquarter” value (lambsquarters; POSTEMERGENCE, Rate 50 g/ha) was 4, the “Plant response rating, Lambsquarter” value (lambsquarters; POSTEMERGENCE, Rate 200 g/ha) was 7 and the “Plant response rating, Lambsquarter” value (lambsquarters; PREEMERGENCE, Rate 50 g/ha) was 0. The “Plant response rating, Lambsquarter” value (lambsquarters; Rate 200 g/ha, PREEMERGENCE) was 0, the “Plant response rating (0 to 10 scale), Cheatgrass” value (cheatgrass; POSTEMERGENCE, Rate 50 g/ha) was 2 and the “Plant response rating, Cheatgrass” value (cheatgrass; POSTEMERGENCE, Rate 200 g/ha) was 2. The “Plant response rating, Cheatgrass” value (cheatgrass; PREEMERGENCE, Rate 50 g/ha) was 0, the “Plant response rating, Cheatgrass” value (cheatgrass; Rate 200 g/ha, PREEMERGENCE) was 0 and the “Plant response rating, Rice” value (rice; POSTEMERGENCE, Rate 50 g/ha) was 4. For the same compound, the “Plant response rating, Rice” value (rice; POSTEMERGENCE, Rate 200 g/ha) was 3, the “Plant response rating, Rice” value (rice; PREEMERGENCE, Rate 50 g/ha) was 0 and the “Plant response rating, Rice” value (rice; Rate 200 g/ha, PREEMERGENCE) was 0. The “Plant response rating, Wild buckwheat” value (wild buckwheat; POSTEMERGENCE, Rate 50 g/ha) was 5, the “Plant response rating, Wild buckwheat” value (wild buckwheat; POSTEMERGENCE, Rate 200 g/ha) was 9 and the “Plant response rating, Wild buckwheat” value (wild buckwheat; Rate 200 g/ha, PREEMERGENCE) was 0. The “Plant response rating, Nutsedge” value (purple nutsedge; POSTEMERGENCE, Rate 50 g/ha) was 0, the “Plant response rating, Nutsedge” value (purple nutsedge; POSTEMERGENCE, Rate 200 g/ha) was 0 and the “Plant response rating, Nutsedge” value (purple nutsedge; Rate 200 g/ha, PREEMERGENCE) was 0.

`Clc1ccc(-c2nc3n(c2Br)CCCC3)c(Cl)c1` [Compound 2] was tested, and the “Plant response rating, Soybean” value (soybean; POSTEMERGENCE, Rate 50 g/ha) was 6, the “Plant response rating (0 to 10 scale), Soybean” value (soybean; POSTEMERGENCE) was 6 and the “Plant response rating, Soybean” value (soybean; POSTEMERGENCE, Rate 200 g/ha) was 6. For the same compound, the “Plant response rating, Soybean” value (soybean; POSTEMERGENCE, Rate 400 g/ha) was 7, the “Plant response rating, Soybean” value (soybean; PREEMERGENCE, Rate 50 g/ha) was 0 and the “Plant response rating (0 to 10 scale), Soybean” value (soybean; PREEMERGENCE) was 0. For the same compound, the “Plant response rating, Soybean” value (soybean; PREEMERGENCE, Rate 400 g/ha) was 0, the “Plant response rating, Soybean” value (soybean; Rate 200 g/ha, PREEMERGENCE) was 0 and the “Plant response rating (0 to 10 scale), Cotton” value (cotton; POSTEMERGENCE, Rate 50 g/ha) was 9. For the same compound, the “Plant response rating (0 to 10 scale), Cotton” value (cotton; POSTEMERGENCE, Rate 100 g/ha) was 10, the “Plant response rating, Cotton” value (cotton; POSTEMERGENCE, Rate 200 g/ha) was 9 and the “Plant response rating, Cotton” value (cotton; POSTEMERGENCE, Rate 400 g/ha) was 10. The “Plant response rating, Cotton” value (cotton; PREEMERGENCE, Rate 50 g/ha) was 0, the “Plant response rating (0 to 10 scale), Cotton” value (cotton; PREEMERGENCE, Rate 100 g/ha) was 0 and the “Plant response rating, Cotton” value (cotton; PREEMERGENCE, Rate 400 g/ha) was 2. The “Plant response rating, Cotton” value (cotton; Rate 200 g/ha, PREEMERGENCE) was 0, the “Plant response rating, Velvetleaf” value (velvetleaf; POSTEMERGENCE, Rate 50 g/ha) was 9 and the “Plant response rating (0 to 10 scale), Velvetleaf” value (velvetleaf; POSTEMERGENCE, Rate 100 g/ha) was 8. For the same compound, the “Plant response rating, Velvetleaf” value (velvetleaf; POSTEMERGENCE, Rate 200 g/ha) was 8, the “Plant response rating, Velvetleaf” value (velvetleaf; POSTEMERGENCE, Rate 400 g/ha) was 9 and the “Plant response rating, Velvetleaf” value (velvetleaf; PREEMERGENCE, Rate 50 g/ha) was 0. For the same compound, the “Plant response rating, Velvetleaf” value (velvetleaf; PREEMERGENCE, Rate 400 g/ha) was 4, the “Plant response rating, Velvetleaf” value (velvetleaf; Rate 200 g/ha, PREEMERGENCE) was 0 and the “Plant response rating, Lambsquarter” value (lambsquarters; POSTEMERGENCE, Rate 50 g/ha) was 9. For the same compound, the “Plant response rating (0 to 10 scale), Lambsquarter” value (lambsquarters; POSTEMERGENCE) was 9, the “Plant response rating, Lambsquarter” value (lambsquarters; POSTEMERGENCE, Rate 200 g/ha) was 9 and the “Plant response rating, Lambsquarter” value (lambsquarters; POSTEMERGENCE, Rate 400 g/ha) was 9. For the same compound, the “Plant response rating, Lambsquarter” value (lambsquarters; PREEMERGENCE, Rate 50 g/ha) was 0, the “Plant response rating (0 to 10 scale), Lambsquarter” value (lambsquarters; PREEMERGENCE) was 0 and the “Plant response rating, Lambsquarter” value (lambsquarters; Rate 200 g/ha, PREEMERGENCE) was 6. The “Plant response rating (0 to 10 scale), Cheatgrass” value (cheatgrass; POSTEMERGENCE, Rate 50 g/ha) was 2, the “Plant response rating (0 to 10 scale), Cheatgrass” value (cheatgrass; POSTEMERGENCE, Rate 100 g/ha) was 2 and the “Plant response rating, Cheatgrass” value (cheatgrass; POSTEMERGENCE, Rate 200 g/ha) was 3. The “Plant response rating, Cheatgrass” value (cheatgrass; POSTEMERGENCE, Rate 400 g/ha) was 4, the “Plant response rating, Cheatgrass” value (cheatgrass; PREEMERGENCE, Rate 50 g/ha) was 0 and the “Plant response rating (0 to 10 scale), Cheatgrass” value (cheatgrass; PREEMERGENCE, Rate 100 g/ha) was 0. For the same compound, the “Plant response rating, Cheatgrass” value (cheatgrass; PREEMERGENCE, Rate 400 g/ha) was 0, the “Plant response rating, Cheatgrass” value (cheatgrass; Rate 200 g/ha, PREEMERGENCE) was 0 and the “Plant response rating, Rice” value (rice; POSTEMERGENCE, Rate 50 g/ha) was 3. For the same compound, the “Plant response rating (0 to 10 scale), Rice” value (rice; POSTEMERGENCE) was 4, the “Plant response rating, Rice” value (rice; POSTEMERGENCE, Rate 200 g/ha) was 4 and the “Plant response rating, Rice” value (rice; POSTEMERGENCE, Rate 400 g/ha) was 4. For the same compound, the “Plant response rating, Rice” value (rice; PREEMERGENCE, Rate 50 g/ha) was 0, the “Plant response rating (0 to 10 scale), Rice” value (rice; PREEMERGENCE) was 0 and the “Plant response rating, Rice” value (rice; PREEMERGENCE, Rate 400 g/ha) was 0. For the same compound, the “Plant response rating, Rice” value (rice; Rate 200 g/ha, PREEMERGENCE) was 0, the “Plant response rating, Wild buckwheat” value (wild buckwheat; POSTEMERGENCE, Rate 50 g/ha) was 10 and the “Plant response rating (0 to 10 scale), Wild buckwheat” value (wild buckwheat; POSTEMERGENCE) was 10. The “Plant response rating, Wild buckwheat” value (wild buckwheat; POSTEMERGENCE, Rate 200 g/ha) was 10, the “Plant response rating, Wild buckwheat” value (wild buckwheat; POSTEMERGENCE, Rate 400 g/ha) was 10 and the “Plant response rating, Wild buckwheat” value (wild buckwheat; PREEMERGENCE, Rate 50 g/ha) was 0. The “Plant response rating (0 to 10 scale), Wild buckwheat” value (wild buckwheat; PREEMERGENCE) was 0, the “Plant response rating, Wild buckwheat” value (wild buckwheat; PREEMERGENCE, Rate 400 g/ha) was 0 and the “Plant response rating, Wild buckwheat” value (wild buckwheat; Rate 200 g/ha, PREEMERGENCE) was 0. The “Plant response rating, Nutsedge” value (purple nutsedge; POSTEMERGENCE, Rate 50 g/ha) was 0, the “Plant response rating (0 to 10 scale), Nutsedge” value (purple nutsedge; POSTEMERGENCE) was 0 and the “Plant response rating, Nutsedge” value (purple nutsedge; POSTEMERGENCE, Rate 200 g/ha) was 0. The “Plant response rating, Nutsedge” value (purple nutsedge; POSTEMERGENCE, Rate 400 g/ha) was 0, the “Plant response rating, Nutsedge” value (purple nutsedge; PREEMERGENCE, Rate 50 g/ha) was 0 and the “Plant response rating (0 to 10 scale), Nutsedge” value (purple nutsedge; PREEMERGENCE) was 0. The “Plant response rating, Nutsedge” value (purple nutsedge; PREEMERGENCE, Rate 400 g/ha) was 0 and the “Plant response rating, Nutsedge” value (purple nutsedge; Rate 200 g/ha, PREEMERGENCE) was 0.
